Patent US10239842B2, “Hydrosoluble compounds derived from benzimidazole used in treating fasciolosis” (UNIVERSIDAD NACIONAL AUTONOMA DE MEXICO, priority 2014, dated 2019)
Like-named read-outs stand apart in the source and are kept apart here. Each block holds one compound with its values, some of them ahead of it.

Assays:
Fasciola hepatica [1] = conditions: cited from earlier work; for Efficacy against Fasciola hepatica, second fasciola age span for the drug / Efficacy against Fasciola hepatica, first fasciola age span printed for the drug: sheep, recommended dose rates, span not recoverable from the grid; for Efficacy against Fasciola hepatica, second fasciola age span for the drug: second (older) age span in weeks; for Efficacy against Fasciola hepatica, first fasciola age span printed for the drug: first (younger) age span in weeks
[2] = Studies of aqueous solubility (method reported by Yalkowski); type: physicochemical; conditions: determined at 25° C.
Description: Sample was stirred at room temperature for 48 hours until reaching equilibrium between the two phases. The tube was then centrifuged at 4500 rpm for minutes at room temperature. […] Its concentration was then determined in a spectrophotometer at 350 nm.

[3] = Stability studies in aqueous solution by UV-HPLC; type: physicochemical; conditions: >95% by UV-HPLC determined at room temperature
Description: Solutions were kept at room temperature (25° C.) for 26 hours (24 hour for TCBZ), and 5 mL of the samples were later diluted in 10 mL of water and analyzed by UV-HPLC.

[4] = tested on: mature and juvenile fasciola; conditions: dose of 15 mg/Kg; previous studies; cited from earlier work
Fasciola hepatica [5] = test: In-vitro evaluation of fasciolicide efficacy on artificially excysted fasciola; type: cell-based
Description: In order to evaluate the anti-fasciola effect of compounds 5 and 6 as mixture of regioisomers, artificially excysted fasciola were used (approximately six hours after excystment), according to the disclosure by Ibarra and Jenkins, (1984). Briefly, recently excysted fasciola are suspended in 90 ml of Roswell Park Memorial Institute (RPMI)-1640® culture media plus 90 ml of bovine serum and 1.5 ml of antibiotics (Penicillin and Streptomycin) at a density of 100 individuals/ml.
5 mg of experimental compound was used and placed in a universal bottle (30 ml capacity), to which 0.1 ml of methanol was added to dissolve the compound. From this point, required dilutions are carried out with distilled water to prepare concentrations of 50 and 10 mg/l.
24-well NUNC® culture dishes were used and 1.6 ml of culture medium (RPMI/bovine serum), 0.2 ml of the compound concentration to be tested and 0.2 ml of RPMI containing 10 fasciola per well are placed into each well. Control wells which contain fasciola without compound are used per each dish, further including a control group with a reference drug (Triclabendazole-Fasinex®-Novartis). Each concentration is carried out three times. Each sample remains under incubation at 37° C. during 4 days under a 5% CO2 atmosphere.
Fasciola under study are examined at 24, 48 and 72 hours post-exposure to compound through an inverted microscope at 40×. Extract activity is measured by comparing survival of treated fasciola with control group fasciola. All procedures are carried out under aseptic conditions in a laminar flow hood.
Efficacy is measured by using the following formula (Abbott, 2004): % Efficacy=[Fasciola in control group−Fasciola in treated group]/[[…]]
The extract is considered to have fasciolicide activity when showing an in vitro efficacy higher than 80%. (Ibarra & Jenkins, 1984; Elango & Rahuman, 2011; Ibarra et al, 2013).

[6] = cited from earlier work
[7] = TCBZ solubility reported in literature; cited from earlier work
[8] = 24 h, read-out: EFFICACY (%) 1st Test, mortality percentage
[9] = 24 h, read-out: EFFICACY (%) 2nd Test, mortality percentage
[10] = 24 h, read-out: EFFICACY (%) 3rd Test, mortality percentage
[11] = 24 h, read-out: EFFICACY (%) Average, mortality percentage
[12] = 48 h, read-out: EFFICACY (%) 1st Test, mortality percentage
[13] = 48 h, read-out: EFFICACY (%) 2nd Test, mortality percentage
[14] = 48 h, read-out: EFFICACY (%) 3rd Test, mortality percentage
[15] = 48 h, read-out: EFFICACY (%) Average, mortality percentage
[16] = 72 h, read-out: EFFICACY (%) 1st Test, mortality percentage
[17] = 72 h, read-out: EFFICACY (%) 2nd Test, mortality percentage
[18] = 72 h, read-out: EFFICACY (%) 3rd Test, mortality percentage
[19] = 72 h, read-out: EFFICACY (%) Average, mortality percentage

Structure (SMILES): O=C(Nc1ccc(Oc2ccc(Cl)cc2)c(Cl)c1)c1cc(I)cc(I)c1O [Rafoxanide]
Efficacy against Fasciola hepatica, second fasciola age span for the drug (Fasciola hepatica [1]): 91-99%

Structure (SMILES): CCCSc1ccc2nc(NC(=O)OC)[nH]c2c1 [Albendazole]
efficacy over Fasciola hepatica (Fasciola hepatica [1]; fasciola age weeks 10-11): 50-70%
efficacy over Fasciola hepatica (Fasciola hepatica [1]; fasciola age weeks 12-14): 80-90%

Structure (SMILES): Nc1cc(C(Cl)=C(Cl)Cl)c(S(N)(=O)=O)cc1S(N)(=O)=O [Closuron]
Efficacy against Fasciola hepatica, first fasciola age span printed for the drug (Fasciola hepatica [1]): 90-99%

Structure (SMILES): CC(=O)Nc1ccc(OCCOCCOc2ccc(NC(C)=O)cc2)cc1 [Diamphenetide]
efficacy in adult fasciola (Fasciola hepatica [1]; 7-week adult fasciola): not being effective
Efficacy against Fasciola hepatica, first fasciola age span printed for the drug (Fasciola hepatica [1]): 91-100%
Efficacy against Fasciola hepatica, second fasciola age span for the drug (Fasciola hepatica [1]): 50-80%

Aqueous solubility pH 7 [2]: 2.6×10^−4 mg/mL
Aqueous solubility (h) pH 7 [chemical stability] [3]: >26 h
Structure (SMILES): CSc1nc2cc(Oc3cccc4ccccc34)c(Cl)cc2[nH]1 [Alpha compound, 5-Chloro-2-(methylthio)-6-(1-naphthyloxy)-1H-benzimidazole]
efficacy against mature and juvenile fasciola [4]: 86.9%

Structure (SMILES): CSc1nc2cc(Oc3cccc(Cl)c3Cl)c(Cl)cc2[nH]1 [Triclabendazole]
Aqueous solubility (h) pH 7 [chemical stability] [3]: >24 h
mortality at 10 µg/mL (Fasciola hepatica [5]; [8]): 100%
mortality at 50 µg/mL (Fasciola hepatica [5]; [8]): 100%
mortality at 10 µg/mL (Fasciola hepatica [5]; [9]): 100%
mortality at 50 µg/mL (Fasciola hepatica [5]; [9]): 100%
mortality at 10 µg/mL (Fasciola hepatica [5]; [10]): 100%
mortality at 50 µg/mL (Fasciola hepatica [5]; [10]): 100%
mortality at 10 µg/mL (Fasciola hepatica [5]; [11]): 100%
mortality at 50 µg/mL (Fasciola hepatica [5]; [11]): 100%
mortality at 10 µg/mL (Fasciola hepatica [5]; [12]): 100%
mortality at 50 µg/mL (Fasciola hepatica [5]; [12]): 100%
mortality at 10 µg/mL (Fasciola hepatica [5]; [13]): 100%
mortality at 50 µg/mL (Fasciola hepatica [5]; [13]): 100%
mortality at 10 µg/mL (Fasciola hepatica [5]; [14]): 100%
mortality at 50 µg/mL (Fasciola hepatica [5]; [14]): 100%
mortality at 10 µg/mL (Fasciola hepatica [5]; [15]): 100%
mortality at 50 µg/mL (Fasciola hepatica [5]; [15]): 100%
mortality at 10 µg/mL (Fasciola hepatica [5]; [16]): 100%
mortality at 50 µg/mL (Fasciola hepatica [5]; [16]): 100%
mortality at 10 µg/mL (Fasciola hepatica [5]; [17]): 100%
mortality at 50 µg/mL (Fasciola hepatica [5]; [17]): 100%
mortality at 10 µg/mL (Fasciola hepatica [5]; [18]): 100%
mortality at 50 µg/mL (Fasciola hepatica [5]; [18]): 100%
mortality at 10 µg/mL (Fasciola hepatica [5]; [19]): 100%
mortality at 50 µg/mL (Fasciola hepatica [5]; [19]): 100%
Efficacy against Fasciola hepatica, second fasciola age span for the drug (Fasciola hepatica [1]): 91-99%
absorbed fraction of administered dose ([6]; orally administered): 5%
plasma levels of triclabendazole as sulfoxide ([6]; share of dose): 5%
removed in feces ([6]; share of dose): 92%
removed in milk ([6]; share of dose): 1%
removed in urine ([6]; share of dose): 2%
Aqueous solubility pH 7 [7]: 2.0 × 10^−4 mg/mL
